The values below come from patent publication US20120269725A1, “TARGETED RADIOLABELED COMPOUNDS AND THEIR USE FOR THE TREATMENT AND DIAGNOSIS OF CANCER” (priority 2009, published 2012).

Usually IC50 stands for the concentration at which inhibition is half-maximal.

Like-named read-outs stand apart in the source and are kept apart here. Bounds are passed on as bounds.

One series addresses human BChE (Homo sapiens, UniProt P06276). In words: UV-based BChE inhibition (IC50) assay. It counts as biochemical. As to conditions: non-radioactive compounds, 30 min preincubation, room temperature, pH 7.0. As to the method: Assays employed to determine IC50 were developed by the present inventors and utilized UV based detection. For UV-based assays, a BChE solution in 0.1 M potassium phosphate, pH 7.0 was placed in the desired numbers of wells of a 96-well plate (0.05 mL/well). The investigated compound was diluted in DMSO to produce concentrations from 0 to 10 μM in DMSO and 0.002 mL/well of these dilutions was added to BChE-containing wells. Reaction mixtures were incubated at room temperature for 30 min. The reagent consisting of BChE substrate, 1 mM (2-mercaptoethyl)trimethylammonium iodide butyrate, and 0.5 mM 5,5′-dithio-bis(2-nitrobenzoic acid) in 0.1 M potassium phosphate, pH 7.0 (prepared fresh for each assay) was added, 0.25 mL per well. The mixture was incubated at room temperature and the OD at λ=405 nm was read at 1, 2, 3, 4, 5, 10, and 15 min after the addition of this reagent using the Opsys MR™plate reader (Dynex Technologies, Chantilly, Va.). Data were analyzed using the IC50 nonlinear regression function provided by GraphPad Prism (GraphPad Software, La Jolla, Calif.).
The compound binding of several non-radioactive compounds of the method of the invention were analyzed by the aforementioned human BChE compound binding study to determine their affinity for the therapeutic target (Table 1).

The subject of the next series is IP OVCAR-3 tumors. In words: Pilot therapy of IP OVCAR-3 tumors in athymic mice. Format: in vivo. As to conditions: for whole body retention, median / whole body retention: after 14 days; for whole body retention: value with spread in brackets. The text has this: In pilot therapy experiments, the effects of unmodified ^125IUdR on the growth of IP OVCAR-3 tumors were compared to the therapeutic effects of the 6b diastereomeric mixture and 7b diastereomeric mixture. The tumor model used in this study, OVCAR-3 cell line, was established from the malignant ascites of a patient with progressive adenocarcinoma of the ovary after many types of chemotherapy including cyclophosphamide, adriamycin, and cisplatin. OVCAR-3 is resistant in vitro to clinically relevant concentrations of adriamycin, melphalan, and cisplatin (Hamilton T C, Young R C, Louie K G, Behrens B C, McKoy W M, Grotzinger K R, Ozols R F. Characterization of a xenograft model of human ovarian carcinoma which produces ascites and intraabdominal carcinomatosis in mice. Cancer Res. 1984; 44:5286-90.). In immunodeficient mice, IP injected OVCAR-3 cells produce malignant ascites, peritoneal carcinomatosis, and serosal and visceral seeding that, if left untreated, leads to death from respiratory compromise, hemorrhage from invasion of intra-abdominal blood vessels, and bowel obstruction. Substantial literature data (nearly 100 publications) confirm that this tumor model has pathogenesis and metastatic properties similar to those of human ovarian cancer.
Mice received IP implants of approximately 2.4×10^8 OVCAR-3 cells/mouse isolated from fresh OVCAR-3 mouse ascites. Cell viability was measured before and after injection, and was ≧90%. Four days after tumor cells were implanted, the mice received SQ transponders and were randomized via a lottery into four groups: NT—untreated controls that received IP injection of PBS; 7b group—receiving IP doses of the 7b diastereomeric mixture in PBS (average 0.4 mCi/mouse (14.8 MBq)); 6b group—receiving IP doses of the 6b diastereomeric mixture in PBS (average dose 0.36 mCi/mouse (13.3 MBq)); and ^125IUdR group—receiving IP doses of ^125IUdR (average 0.43 mCi/mouse (15.9 MBq)) in PBS. Mice were monitored three times per week.
Mice in the 6b group received 0.22 mCi (8.1 MBq) 6b diastereomeric mixture on day 27; and on day 28 mice in ^125IUdR group were treated with additional 0.2 mCi (7.4 MBq) ^125IUdR. Slight differences in the dosing schedule and the administered doses are because of the required large quantities of the compounds. For these experiments, ˜20 mCi of no-carrier added and radiochemically pure compounds were required. Each agent was purified on the analytical reversed phase HPLC column. The use of preparative columns in this case is impractical because the products are recovered in large volumes of acetonitrile-containing solvent that must be evaporated to dryness before the use in mice.
Overall, mice in the 7b group were treated with an average of 0.58 mCi (21.5 MBq) 7b diastereomeric mixture; mice in the 6b group were treated with an average of 0.58 mCi (21.5 MBq) 6b diastereomeric mixture, and mice in the ^125IUdR group were treated with an average of 0.63 mCi (23.3 MBq) ^125IUdR.
The therapy was terminated 7 weeks after the first dosing. Mice were sacrificed for the biodistribution study. Blood and solid tumor were taken for the evaluation of their radioactive content. The peritoneal cavity was lavaged with 2-mL aliquots of PBS, and PBS wash and ascites were collected. One mL of the ascites suspension with cancer cells was taken for gamma counting. The rest of the abdominal fluid was centrifuged and 0.5 mL of the supernatant was reserved for gamma counting. The weight of the cell pellet and the supernatant were determined.
Two weeks after the first dose of radiolabeled compounds, the whole body radioactivity was measured to determine to what extent the additional doses of the compounds may increase the radiation burden and therefore may be detrimental to the animal health (FIG. 11B). The absolute amounts were low and ranged from […] for the 6b group to […] in the 7b group. […]

Sequence of human BChE (P06276 29-602): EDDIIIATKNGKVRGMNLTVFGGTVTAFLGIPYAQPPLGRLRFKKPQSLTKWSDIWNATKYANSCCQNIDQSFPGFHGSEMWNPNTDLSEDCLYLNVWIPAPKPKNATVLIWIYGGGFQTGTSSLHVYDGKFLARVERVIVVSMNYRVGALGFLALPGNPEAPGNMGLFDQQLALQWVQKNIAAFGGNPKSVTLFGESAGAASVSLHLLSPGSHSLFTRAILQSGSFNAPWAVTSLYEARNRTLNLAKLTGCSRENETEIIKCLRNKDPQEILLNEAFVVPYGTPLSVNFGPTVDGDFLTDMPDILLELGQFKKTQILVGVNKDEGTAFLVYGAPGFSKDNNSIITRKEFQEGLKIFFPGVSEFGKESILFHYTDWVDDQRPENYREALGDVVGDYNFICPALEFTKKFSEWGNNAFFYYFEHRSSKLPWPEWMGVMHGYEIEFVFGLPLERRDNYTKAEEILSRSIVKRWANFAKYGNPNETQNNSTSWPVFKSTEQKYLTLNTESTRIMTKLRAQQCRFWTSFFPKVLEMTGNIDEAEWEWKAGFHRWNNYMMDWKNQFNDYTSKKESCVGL

In the case of `CC(C)(C)c1cc(C(C)(C)C)c2c(c1F)COP(=O)(OCC1OC(n3cc(I)c(=O)[nH]c3=O)CC1F)O2` (single isomer, unassigned) [24 - fast, 5-Iodo-5′-O-[cyclo-3,5-Di-(tert-butyl)-6-fluoroSaligenyl]-3′-fluoro-2′,3′-dideoxyuridine Monophosphate], the IC50 at human BChE (IC50 (nM)) was found to be 549 nM. Still for that read-out and setting: the figure for `O=c1[nH]c(=O)n(C2CC(O)C(COP3(=O)OCc4ccccc4O3)O2)cc1I` (single isomer, unassigned) [6 - fast, 5-Iodo-5′-O-cycloSaligenyl-2′-deoxyuridine Monophosphate] is 1280 nM; for `CC(C)(C)c1cc(C(C)(C)C)c2c(c1F)COP(=O)(OCC1OC(n3cc(I)c(=O)[nH]c3=O)CC1F)O2` (single isomer, unassigned) [24 - slow, 5-Iodo-5′-O-[cyclo-3,5-Di-(tert-butyl)-6-fluoroSaligenyl]-3′-fluoro-2′,3′-dideoxyuridine Monophosphate] it is 19.8 nM. Take `CC(C)(C)c1cc(C(C)(C)C)c2c(c1F)COP(=O)(OC[C@H]1O[C@@H](n3cc(I)c(=O)[nH]c3=O)C[C@@H]1O)O2` (single isomer, unassigned) [8 - fast, 5-Iodo-5′-O-[cyclo-3,5-di-(tert-butyl)-6-fluoroSaligenyl]-2′-deoxyuridine Monophosphate]: at human BChE (IC50 (nM)), the IC50 is more than 60000 nM. For `Cc1cccc2c1OP(=O)(OCC1OC(n3cc(I)c(=O)[nH]c3=O)CC1O)OC2` (single isomer, unassigned) [7 - slow, 5-Iodo-5′-O-cyclo(3-methylSaligenyl)-2′-deoxyuridine Monophosphate], the IC50 on human BChE (IC50 (nM)) came out at 61.2 nM. Turning to `Cc1cn(C2CC(F)C(COP3(=O)OCc4c(F)c(C(C)(C)C)cc(C(C)(C)C)c4O3)O2)c(=O)[nH]c1=O` (single isomer, unassigned) [23 - fast, 5′-O-[cyclo-3,5-Di-(tert-butyl)-6-fluoroSaligenyl]-3′-deoxy-3′-fluorothymidine Monophosphate], the half-inhibitory concentration (IC50) at human BChE (IC50 (nM)) came out at 203 nM.

As for `CC(C)(C)c1cc(C(C)(C)C)c2c(c1F)COP(=O)(OC[C@H]1O[C@@H](n3cc(I)c(=O)[nH]c3=O)C[C@@H]1O)O2` (stereo partly shown) [8 - slow, 5-Iodo-5′-O-[cyclo-3,5-di-(tert-butyl)-6-fluoroSaligenyl]-2′-deoxyuridine Monophosphate], on human BChE (read-out: IC50), the 50% inhibitory concentration (IC50) worked out at 50.1 nM.

Regarding `Cc1cccc2c1OP(=O)(OCC1OC(n3cc(I)c(=O)[nH]c3=O)CC1O)OC2` (single isomer, unassigned) [7 - fast, 5-Iodo-5′-O-cyclo(3-methylSaligenyl)-2′-deoxyuridine Monophosphate], the concentration for half-maximal inhibition (IC50) on human BChE (IC50 (nM)) is more than 7000 nM. As to `O=c1[nH]c(=O)n(C2CC(O)C(COP3(=O)OCc4ccccc4O3)O2)cc1I` (single isomer, unassigned) [6 - slow, 5-Iodo-5′-O-cycloSaligenyl-2′-deoxyuridine Monophosphate], the IC50 at human BChE (IC50 (nM)) stood at 9.2 nM. As for `Cc1cccc2c1OP(=O)(OC[C@H]1O[C@@H](n3cc([125I])c(=O)[nH]c3=O)C[C@@H]1O)OC2` (stereo partly shown) [Compound 7b, 5-[^125I]-Iodo-5′-O-cyclo(3-methylSaligenyl)-2′-deoxyuridine Monophosphate], in the series on IP OVCAR-3 tumors, the “whole body retention, median” value is reported as 1.25 % ID and the whole body retention is listed as 1.21 (0.12) % ID. Besides, the “reduction in solid tumor deposits as compared to ^125IUdR” value in the series on IP OVCAR-3 tumors (diastereomeric mixtures IP, total average 0.58 mCi, 7 weeks after first dose) is listed as approximately 50%. Besides, the “tumor retention compared to ^125IUdR” value in the series on IP OVCAR-3 tumors (necropsy 4 weeks after the boost dose) is on record as “significantly higher compared to ^125IUdR”. As to `O=c1[nH]c(=O)n([C@H]2C[C@H](O)[C@@H](CO)O2)cc1[125I]` [^125IUdR, 5-[^125I]-iodo-2′-deoxyuridine, reference compound], in the series on IP OVCAR-3 tumors, the “whole body retention, median” value came out at 1.08 % ID and the whole body retention was 0.97 (0.11) % ID. `Cc1cn(C2CC(F)C(COP3(=O)OCc4c(F)c(C(C)(C)C)cc(C(C)(C)C)c4O3)O2)c(=O)[nH]c1=O` (single isomer, unassigned) [23 - slow, 5′-O-[cyclo-3,5-Di-(tert-butyl)-6-fluoroSaligenyl]-3′-deoxy-3′-fluorothymidine Monophosphate]: on human BChE (IC50 (nM)), the IC50 was 42.6 nM.
